According to patent publication US20190224166A1, “Compositions and Methods for Treating Muscle Loss” (Augusta University Research Institute, Inc., priority 2018, published 2019):

Tested on: quadriceps muscle
Assay: Proteomic analysis of quadriceps muscle of aged mice treated with 1-methyl-D-tryptophan (Table 1, TOPPGENE enrichment)
Format: in vivo
Protocol: Female mice 22 months of age were obtained from the National Institute on Aging and treated with saline (vehicle) or 1-methyl-D-tryptophan (1-MT, Sigma, 452483, lot#MKBZ1441V) at a low dose (10 mg/kg BW) or at a high dose (100 mg/kg BW). Mice were treated daily for 4 weeks. Treatments were administered i.p. with an injection volume of 0.2 ml following IACUC approved procedures. Mice were euthanized by CO2 overdose and muscles harvested for analysis. One quadriceps muscle was snap frozen for proteomics and the other quadriceps muscle fixed in buffered formalin for paraffin embedding and trichrome staining. The tibialis anterior was placed in PBS for amplex red assay.
The IDO inhibitor, 1-methyl-D-tryptophan, blocks kynurenine production and reduces levels of ROS in muscle.

## Cn1cc(C[C@@H](N)C(=O)O)c2ccccc21 [1MT]
Q91ZJ5, GN = Ugp2
  1MT vs Control: UTP--glucose-1-phosphate uridylyltransferase: 0.9036
Q99JY0, GN = Hadhb
  1MT vs Control: Trifunctional enzyme subunit beta, mitochondrial: 0.7
Q99KI0, GN = Aco2
  1MT vs Control: Aconitate hydratase, mitochondrial: 0.8406
Q99LC5, GN = Etfa
  1MT vs Control: Electron transfer flavoprotein subunit alpha, mitochondrial: 0.8462
Q922B1, GN = Macrod1
  1MT vs Control: O-acetyl-ADP-ribose deacetylase MACROD1: 0.9167
Q01768, GN = Nme2
  1MT vs Control: Nucleoside diphosphate kinase B: 0.9242
Q01853, GN = Vcp
  1MT vs Control: Transitional endoplasmic reticulum ATPase: 0.904
Q02053, GN = Uba1
  1MT vs Control: Ubiquitin-like modifier-activating enzyme 1: 0.5833
Q02789, GN = Cacna1s
  1MT vs Control: Voltage-dependent L-type calcium channel subunit alpha-1S: 0.7143
Q03265, GN = Atp5a1
  1MT vs Control: ATP synthase subunit alpha, mitochondrial: 0.6273
Q06770, GN = Serpina6
  1MT vs Control: Corticosteroid-binding globulin: 0.3125
Q07417, GN = Acads
  1MT vs Control: Short-chain specific acyl-CoA dehydrogenase, mitochondrial: 0.6
Q08642, GN = Padi2
  1MT vs Control: Protein-arginine deiminase type-2: 0.3438
Q11011, GN = Npepps
  1MT vs Control: Puromycin-sensitive aminopeptidase: 0.5
Q60597, GN = Ogdh
  1MT vs Control: 2-oxoglutarate dehydrogenase, mitochondrial: 0.4671
Q60931, GN = Vdac3
  1MT vs Control: Voltage-dependent anion-selective channel protein 3: 0.2609
Q60932, GN = Vdac1
  1MT vs Control: Voltage-dependent anion-selective channel protein 1: 0.3333
Q61171, GN = Prdx2
  1MT vs Control: Peroxiredoxin-2: 0.7895
Q61425, GN = Hadh
  1MT vs Control: Hydroxyacyl-coenzyme A dehydrogenase, mitochondrial: 0.6364
Q61838, GN = A2m
  1MT vs Control: Alpha-2-macroglobulin: 0.6316
Q62407, GN = Speg
  1MT vs Control: Striated muscle-specific serine/threonine-protein kinase: 0.6667
Q64433, GN = Hspe1
  1MT vs Control: 10 kDa heat shock protein, mitochondrial: 0.4
Q64521, GN = Gpd2
  1MT vs Control: Glycerol-3-phosphate dehydrogenase, mitochondrial: 0.3077
Q64737, GN = Gart
  1MT vs Control: Trifunctional purine biosynthetic protein adenosine-3: 0.8
Protein A2AUC9 Kelch-like protein 41, GN=Klhl41
  1MT vs Control: 1.077
Protein O08539 Myc box-dependent-interacting protein 1, GN=Bin1
  1MT vs Control: 1.064
Protein O70209 PDZ and LIM domain protein 3, GN=Pdlim3
  1MT vs Control: 1.412
Protein P04117 Fatty acid-binding protein, adipocyte, GN=Fabp4
  1MT vs Control: 1.1
Protein P05064 Fructose-bisphosphate aldolase A, GN=Aldoa
  1MT vs Control: 1.096
Protein P05132 cAMP-dependent protein kinase catalytic subunit alpha, GN=Prkaca
  1MT vs Control: 1
Protein P07309 Transthyretin, GN=Ttr
  1MT vs Control: 2.5
Protein P07310 Creatine kinase M-type, GN=Ckm
  1MT vs Control: 1.182
Protein P07758 Alpha-1-antitrypsin 1-1, GN=Serpina1a
  1MT vs Control: 1.091
Protein P08228 Superoxide dismutase [Cu—Zn], GN=Sod1
  1MT vs Control: 1.273
Protein P09103 Protein disulfide-isomerase, GN=P4hb
  1MT vs Control: 1.077
Protein P09411 Phosphoglycerate kinase 1, GN=Pgk1
  1MT vs Control: 1.089
Protein P10637 Microtubule-associated protein tau, GN=Mapt
  1MT vs Control: 3
Protein P10649 Glutathione S-transferase Mu 1, GN=Gstm1
  1MT vs Control: 1.152
Protein P13412 Troponin I, fast skeletal muscle, GN=Tnni2
  1MT vs Control: 1.5
Protein P13707 Glycerol-3-phosphate dehydrogenase [NAD(+)], cytoplasmic, GN=Gpd1
  1MT vs Control: 1.072
Protein P14231 Sodium/potassium-transporting ATPase subunit beta-2, GN=Atp1b2
  1MT vs Control: 1
Protein P15626 Glutathione S-transferase Mu 2, GN=Gstm2
  1MT vs Control: 1.111
Protein P16858 Glyceraldehyde-3-phosphate dehydrogenase, GN=Gapdh
  1MT vs Control: 1.167
Protein P17182 Alpha-enolase, GN=Eno1
  1MT vs Control: 1.039
Protein P17742 Peptidyl-prolyl cis-trans isomerase A, GN=Ppia
  1MT vs Control: 1.176
Protein P17751 Triosephosphate isomerase, GN=Tpi1
  1MT vs Control: 1.136
Protein P18826 Phosphorylase b kinase regulatory subunit alpha, skeletal muscle isoform, GN=Phka1
  1MT vs Control: 1.143
Protein P20029 78 kDa glucose-regulated protein, GN=Hspa5
  1MT vs Control: 1.522
Protein P21550 Beta-enolase, GN=Eno3
  1MT vs Control: 1.063
Protein P22599 Alpha-1-antitrypsin 1-2, GN=Serpina1b
  1MT vs Control: 1.028
Protein P23506 Protein-L-isoaspartate(D-aspartate) O-methyltransferase, GN=Pcmt1
  1MT vs Control: 1
Protein P23953 Carboxylesterase 1C, GN=Ces1c
  1MT vs Control: 1.08
Protein P26043 Radixin, GN=Rdx
  1MT vs Control: 1.267
Protein P26883 Peptidyl-prolyl cis-trans isomerase FKBP1A, GN=Fkbp1a
  1MT vs Control: 1.5
Protein P27546 Microtubule-associated protein 4, GN=Map4
  1MT vs Control: 3
Protein P28474 Alcohol dehydrogenase class-3, GN=Adh5
  1MT vs Control: 1.176
Protein P28654 Decorin, GN=Dcn
  1MT vs Control: 1.36
Protein P29699 Alpha-2-HS-glycoprotein, GN=Ahsg
  1MT vs Control: 1.111
Protein P31001 Desmin, GN=Des
  1MT vs Control: 1.133
Protein P45376 Aldose reductase, GN=Akr1b1
  1MT vs Control: 1.064
Protein P45591 Cofilin-2, GN=Cfl2
  1MT vs Control: 1
Protein P47791 Glutathione reductase, mitochondrial, GN=Gsr
  1MT vs Control: 1.25
Protein P47857 ATP-dependent 6-phosphofructokinase, muscle type, GN=Pfkm
  1MT vs Control: 1.013
Protein P50396 Rab GDP dissociation inhibitor alpha, GN=Gdi1
  1MT vs Control: 1.1875
Protein P51885 Lumican, GN=Lum
  1MT vs Control: 1.231
Protein P58252 Elongation factor 2, GN=Eef2
  1MT vs Control: 1.092
Protein P62631 Elongation factor 1-alpha 2, GN=Eef1a2
  1MT vs Control: 1.256
Protein P62908 40S ribosomal protein S3, GN=Rps3
  1MT vs Control: 1
Protein P63005 Platelet-activating factor acetylhydrolase IB subunit alpha, GN=Pafah1b1
  1MT vs Control: 1.25
Protein P63017 Heat shock cognate 71 kDa protein, GN=Hspa8
  1MT vs Control: 1.016
Protein P68134 Actin, alpha skeletal muscle, GN=Acta1
  1MT vs Control: 1.126
Protein P70296 Phosphatidylethanolamine-binding protein 1, GN=Pebp1
  1MT vs Control: 1.024
Protein P70402 Myosin-binding protein H, GN=Mybph
  1MT vs Control: 1.156
Protein P82349 Beta-sarcoglycan, GN=Sgcb
  1MT vs Control: 1
Protein P97384 Annexin A11, GN=Anxa11
  1MT vs Control: 1.375
Protein Q3TJD7 PDZ and LIM domain protein 7, GN=Pdlim7
  1MT vs Control: 1.111
Protein Q3TVI8 Pre-B-cell leukemia transcription factor-interacting protein 1, GN=Pbxip1
  1MT vs Control: 1
Protein Q3TXS7 26S proteasome non-ATPase regulatory subunit 1, GN=Psmd1
  1MT vs Control: 1.333
Protein Q3U0V1 Far upstream element-binding protein 2, GN=Khsrp
  1MT vs Control: 1
Protein Q3UZA1 CapZ-interacting protein, GN=Rcsd1
  1MT vs Control: 1.2
Protein Q5SX39 Myosin-4, GN=Myh4
  1MT vs Control: 1.106
Protein Q7TSH2 Phosphorylase b kinase regulatory subunit beta, GN=Phkb
  1MT vs Control: 1.083
Protein Q8BGQ7 Alanine--tRNA ligase, cytoplasmic, GN=Aars
  1MT vs Control: 1.5
Protein Q8BU85 Methionine-R-sulfoxide reductase B3, mitochondrial, GN=Msrb3
  1MT vs Control: 2.5
Protein Q8C7E7 Starch-binding domain-containing protein 1, GN=Stbd1
  1MT vs Control: 1
Protein Q8CGC7 Bifunctional glutamate/proline--tRNA ligase, GN=Eprs
  1MT vs Control: 1.333
Protein Q8CHP8 Phosphoglycolate phosphatase, GN=Pgp
  1MT vs Control: 1
Protein Q8CHS7 Dehydrogenase/reductase SDR family member 7C, GN=Dhrs7c
  1MT vs Control: 2.667
Protein Q8CHT0 Delta-1-pyrroline-5-carboxylate dehydrogenase, mitochondrial, GN=Aldh4a1
  1MT vs Control: 1
Protein Q8K4Z3 NAD(P)H-hydrate epimerase, GN=Apoa1bp
  1MT vs Control: 1
Protein Q8R1G2 Carboxymethylenebutenolidase homolog, GN=Cmbl
  1MT vs Control: 1.235
Protein Q8VCM7 Fibrinogen gamma chain, GN=Fgg
  1MT vs Control: 1.25
Protein Q8VHX6 Filamin-C, GN=Flnc
  1MT vs Control: 1.059
Protein Q9CPU0 Lactoylglutathione lyase, GN=Glo1
  1MT vs Control: 1.095
Protein Q9CZ30 Obg-like ATPase 1, GN=Ola1
  1MT vs Control: 3.25
Protein Q9D7X3 Dual specificity protein phosphatase 3, GN=Dusp3
  1MT vs Control: 1.5
Protein Q9D8N0 Elongation factor 1-gamma, GN=Eef1g
  1MT vs Control: 1.1
Protein Q9D172 ES1 protein homolog, mitochondrial, GN=D10Jhu81e
  1MT vs Control: 1.2
Protein Q9ESD7 Dysferlin, GN=Dysf
  1MT vs Control: 3
Protein Q9ET78 Junctophilin-2, GN=Jph2
  1MT vs Control: 1.381
Protein Q9ET80 Junctophilin-1, GN=Jph1
  1MT vs Control: 1.143
Protein Q9JKB3 Y-box-binding protein 3, GN=Ybx3
  1MT vs Control: 1.333
Protein Q9JKS4 LIM domain-binding protein 3, GN=Ldb3
  1MT vs Control: 1.037
Protein Q9QYG0 Protein NDRG2, GN=Ndrg2
  1MT vs Control: 1.015
Protein Q9R0Y5 Adenylate kinase isoenzyme 1, GN=Ak1
  1MT vs Control: 1.133
Protein Q9R062 Glycogenin-1, GN=Gyg1
  1MT vs Control: 1.538
Protein Q9WUZ7 SH3 domain-binding glutamic acid-rich protein, GN=Sh3bgr
  1MT vs Control: 1.057
Protein Q9Z1Z2 Serine-threonine kinase receptor-associated protein, GN=Strap
  1MT vs Control: 1.5
Protein Q9Z2U0 Proteasome subunit alpha type-7, GN=Psma7
  1MT vs Control: 3
Protein Q70KF4 Cardiomyopathy-associated protein 5, GN=Cmya5
  1MT vs Control: 1
Protein Q76MZ3 Serine/threonine-protein phosphatase 2A 65 kDa regulatory subunit A alpha isoform, GN=Ppp2r1a
  1MT vs Control: 1.125
Protein Q91VI7 Ribonuclease inhibitor, GN=Rnh1
  1MT vs Control: 1.111
Protein Q91YE8 Synaptopodin-2, GN=Synpo2
  1MT vs Control: 1.077
Protein Q99LX0 Protein deglycase DJ-1, GN=Park7
  1MT vs Control: 1.194
Protein Q99PR8 Heat shock protein beta-2, GN=Hspb2
  1MT vs Control: 1.5
Protein Q924M7 Mannose-6-phosphate isomerase, GN=Mpi
  1MT vs Control: 1.111
Protein Q04857 Collagen alpha-1(VI) chain, GN=Col6a1
  1MT vs Control: 1.5
Protein Q60864 Stress-induced-phosphoprotein 1, GN=Stip1
  1MT vs Control: 1.167
Protein Q61292 Laminin subunit beta-2, GN=Lamb2
  1MT vs Control: 1
Protein Q61584 Fragile X mental retardation syndrome-related protein 1, GN=Fxr1
  1MT vs Control: 1
Protein Q62234 Myomesin-1, GN=Myom1
  1MT vs Control: 1.113
Protein Q62446 Peptidyl-prolyl cis-trans isomerase FKBP3, GN=Fkbp3
  1MT vs Control: 1.429
Protein Q64105 Sepiapterin reductase, GN=Spr
  1MT vs Control: 1.5
Protein Q64727 Vinculin, GN=Vcl
  1MT vs Control: 1.333
